Measurements: patent publication US20260259231A1, “METHODS AND DEVICES FOR DETECTION OF COAGULATION IMPAIRMENT” (Coagulo Medical Technologies, Inc., priority 2021, published 2026)
Where two headings read alike, the source gives them in different places.

Legend:
[1] = tested on: coagulation cascade (FXa, FIIa, FXI inhibition); assay: Clotting time of inhibitor-spiked blood samples on addition of buffer, FXa or FIIa (FIG. 33B); settings: for clotting time, control condition: no exogenous factor added, contact activation pathway activator; for clotting time upon addition of exogenous FIIa: two concentrations of FIIa; for clotting time upon addition of exogenous FXa: two concentrations of FXa
Protocol: The control condition (where no exogenous factor is added) utilizes an activator of the contact activation pathway to activate FXII to FXIIa. FIG. 33B is a bar graph showing the clotting time responses to the addition of buffer (control), two concentrations of FXa, and two concentrations of FIIa. […] The amount of exogenous FIIa added to the sample was inadequate to overcome all of the FIIa inhibition present in the sample. In these examples in FIG. 33B, when a sample's clotting time normalizes to the negative control clotting time, such a result is also described as an “unaffected” clotting time in the figures depicting the pathways.

[2] = PT and INR of patients on FXa-I versus controls; assay type: in vivo, human; settings: patients documented to be on FXa-I; significance p<0.05
Text: FIGS. 18A-18C illustrate prothrombin time (PT) and international normalized ratio (INR) is sensitive but not specific for FXa-I anticoagulation. Both PT and INR were compared between control patients and patients documented to be on FXa-I. Abnormal PT was defined as >14 seconds and abnormal INR was defined as >1.2. […] One-way ANOVA was used to compare normal and abnormal controls with both rivaroxaban and apixaban. Significance was defined as p<0.05.

FXI = FXI (Homo sapiens, UniProt P03951); assay: Clotting time of inhibitor-spiked whole blood samples on addition of exogenous FXI (FIG. 33A, 33C); settings: FIG. 33C; FXI inhibitor at Conc 1<Conc 2<Conc 3
Protocol: FIG. 33A provides representative clotting-curves of whole blood samples spiked with a concentration of FXI inhibitor (inh) (Conc 1<Conc 2<Conc 3); no inhibitor was added to the negative control. The curves show the samples' respective changes in clotting time as a response to the addition of increasing concentrations of exogenous FXI.
FIG. 33C reports the effect of the addition of exogenous FXI on the clotting time of various samples. In this example, the negative control, containing no inhibitor, has an unaffected clotting time with the addition of FXI.

FXa = target: T1, FXa (Homo sapiens, UniProt P00742); assay: Clotting curves of citrated plasma from emergency department patients on FXa-I; assay type: in vivo; settings: patient plasma samples
T1 construct: Citrated plasma samples were collected from patients; from tissue; host or cells: citrated plasma of patients
Protocol: Citrated plasma samples were collected from patients admitted into the Massachusetts General Hospital Emergency Department. All plasma samples had clinician-ordered coagulation tests (PT/INR, aPTT, DTT, or other). Patient samples were evaluated using an embodiment of the assay described herein. Patient medical records were reviewed for the administration of history of anticoagulants.
Clotting times were compared at various agonist concentrations for all the patient groups to construct clotting curves.

Factor Xa (FXa) = Factor Xa (FXa) (Homo sapiens, UniProt P00742); assay: Microfluidic clotting-curve assay, plasma spiked with FXa inhibitor, FXa agonist gradient; assay type: biochemical
Text: (§1) A general protocol for performing the assay according to an embodiment of the invention is as follows: • a) Add together sample, agonist, +/−calcium, +/−clot detection agent • i. Calcium to a final concentration between 0.005-0.05 M (This concentration is particularly suitable for use with 3.2% buffered sodium citrate. If another anticoagulant is used, the concentration of calcium may not be 0.02 M.) • ii. Clot detection agents can include fluorescent labeled fibrinogen, magnets, beads (may be fluorescent or colored) • b) Load into microfluidic device • i. See, e.g., FIGS. 1A-1D, 2A and 2B for examples of input loading configuration and order • c) Temperature control • i. Room temperature • ii. May increase up to 37° C.
(§2) In an example, the process of clot detection can include the following procedural steps: • a) A plasma sample is pre-mixed to include: 6 μL plasma+0.6 μL agonist (10% volume to sample)+0.6 μL Calcium (stock 200 mM, 10% volume to sample)+0.6 μL Fibrinogen (this can vary in concentration, in general <10% volume of sample).
(§3) The time it takes for each of the combinations to form a clot is then plotted. […] Concentration of the agonist (FXa for FIGS. 7A-7C, and FIIa for FIG. 7D) is plotted on the X-axis for each of the figures. The units on the X-axis “ng/mL” refer to ng×10^3/mL.

FIIa = FIIa (Homo sapiens, UniProt P00734)
Text: as §1, §2, §3

Factor IX = Factor IX (Homo sapiens, UniProt P00740); assay: Clotting curve, Factor IX added to FIX-deficient plasma or plasma with anti-Factor IX antibodies (FIG. 26); assay type: biochemical
Text: It should be understood that the use of exogenous factor addition to a plasma sample may not be able to differentiate between deficiency and low quantities of inhibitors, for example, if the concentration of the inhibitor is low enough such that a physiological level of the factor is able to overcome the functional inhibition resulting in a normalized clotting time. Additionally, the inhibitor detected using the clotting time approach is a functional inhibitor such that the inhibitor decreases the factor's ability to propagate a blood clot.

[3] = tested on: contact activation pathway (intrinsic pathway); assay: Clotting times of control and factor-deficient plasmas with exogenous coagulation factors (FIG. 25); assay type: biochemical
Text: FIG. 25 is a table providing representative clotting times (minutes:seconds) for various plasma samples in the presence of exogenous coagulation factors. […] The clotting time for the control plasma, with no exogenous factor added (negative control), represents the clotting time based on activation of the contact activation pathway (intrinsic pathway); this clotting time can be designated as normal clotting time. […] The clotting time of the FVIII-deficient plasma decreases with the addition of FVIII or FIXa. […] The clotting time of FIX-deficient plasma decreases with the addition of exogenous FIX or FIXa. In all plasma samples, exogenous FXa is used as a positive control to confirm the ability of the plasma sample to clot. FIIa can also be used for this purpose.

Factors IIa and Xa = assay: Whole blood clot detection in parallel microfluidic channels pre-coated with FXa; settings: whole blood with unfractionated heparin, 10 minutes
Protocol: FIGS. 4A and 4B are fluorescent images illustrating clot detection using whole blood in a parallel microfluidic channel device 410 according to an example embodiment. Microfluidic channels 420 were pre-coated with agonist, Factor Xa, at various concentrations (7.5 ng/ml, 75 ng/ml, 750 ng/ml; units “ng/mL” refer to ng×10^3/mL) or with buffer alone (negative control). The fluorescent images are taken at one time point (10 minutes). Microfluidic channels were washed with buffer prior to use to leave only bound FXa within the microfluidic channel. Fresh whole blood was placed into each input port and the blood was drawn in through capillary action. The blood was left to flow for 10 minutes and then the channel was gently washed with buffer. Depicted is a brightfield image of two samples evaluated. […] Unfractionated heparin inhibits Factors IIa and Xa in an antithrombin III-dependent fashion, which is why the addition of these factors at appropriate concentrations can help recover the clotting capability of the sample.

Factor Xa (FXa), sequence (P00742 235-488 limits assumed): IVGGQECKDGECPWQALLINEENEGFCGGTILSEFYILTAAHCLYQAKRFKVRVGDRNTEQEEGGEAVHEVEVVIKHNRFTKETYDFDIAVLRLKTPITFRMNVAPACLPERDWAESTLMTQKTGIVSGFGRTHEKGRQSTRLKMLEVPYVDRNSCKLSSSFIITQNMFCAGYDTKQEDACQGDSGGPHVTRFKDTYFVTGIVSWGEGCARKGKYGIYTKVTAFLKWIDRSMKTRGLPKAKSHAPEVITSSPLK
Factor Xa (FXa), sequence (P00742 41-179 partner limits assumed): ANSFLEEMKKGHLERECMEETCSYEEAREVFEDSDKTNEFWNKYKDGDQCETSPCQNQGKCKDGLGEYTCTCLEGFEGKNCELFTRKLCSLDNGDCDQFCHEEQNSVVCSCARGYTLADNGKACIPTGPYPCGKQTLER
Factor IX, sequence (P00740 29-461 limits assumed): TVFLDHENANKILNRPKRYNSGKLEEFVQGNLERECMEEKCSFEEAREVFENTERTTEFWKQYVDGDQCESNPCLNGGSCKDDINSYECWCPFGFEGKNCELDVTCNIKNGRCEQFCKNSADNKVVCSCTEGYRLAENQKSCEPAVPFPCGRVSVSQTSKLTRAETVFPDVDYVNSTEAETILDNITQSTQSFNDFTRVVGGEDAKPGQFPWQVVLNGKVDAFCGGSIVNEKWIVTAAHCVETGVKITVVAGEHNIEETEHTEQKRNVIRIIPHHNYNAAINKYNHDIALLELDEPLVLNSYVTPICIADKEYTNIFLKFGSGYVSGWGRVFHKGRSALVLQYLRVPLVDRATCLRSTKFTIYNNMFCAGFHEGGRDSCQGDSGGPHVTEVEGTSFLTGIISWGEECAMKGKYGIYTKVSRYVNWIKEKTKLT
FXI, sequence (P03951 19-625, species assumed): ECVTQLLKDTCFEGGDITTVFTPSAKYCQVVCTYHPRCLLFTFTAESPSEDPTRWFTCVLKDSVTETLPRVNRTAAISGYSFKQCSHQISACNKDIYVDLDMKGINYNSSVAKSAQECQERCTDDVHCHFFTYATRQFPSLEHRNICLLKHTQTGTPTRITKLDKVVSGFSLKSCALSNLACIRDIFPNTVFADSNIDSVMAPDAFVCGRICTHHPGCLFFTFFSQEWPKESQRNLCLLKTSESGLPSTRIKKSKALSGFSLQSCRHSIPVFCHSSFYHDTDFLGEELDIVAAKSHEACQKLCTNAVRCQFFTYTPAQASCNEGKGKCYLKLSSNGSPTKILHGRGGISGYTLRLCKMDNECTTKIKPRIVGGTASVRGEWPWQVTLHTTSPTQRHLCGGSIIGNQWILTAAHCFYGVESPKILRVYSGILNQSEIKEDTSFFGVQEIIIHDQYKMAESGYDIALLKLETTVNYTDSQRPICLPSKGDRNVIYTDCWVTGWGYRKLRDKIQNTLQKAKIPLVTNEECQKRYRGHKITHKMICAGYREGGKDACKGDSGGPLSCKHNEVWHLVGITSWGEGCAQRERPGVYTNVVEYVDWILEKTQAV
T1 sequence (P00742 235-488 limits assumed): as the sequence (P00742 235-488 limits assumed) above
T1 sequence (P00742 41-179 partner limits assumed): as the sequence (P00742 41-179 partner limits assumed) above

Row | Molecule | clotting time, control condition [1] | clotting time upon addition of exogenous FIIa [1] | clotting time upon addition of exogenous FXa [1] | PT and INR compared to abnormal controls (one-way ANOVA) [2] | clotting time upon addition of exogenous factor ([3]; FIX-deficient plasma) | clotting time upon addition of exogenous factor ([3]; FVIII-deficient plasma) | clotting time upon addition of exogenous factor ([3]; FXI-deficient plasma) | clotting time upon addition of exogenous factor ([3]; control (normal) plasma) | other results
1 | COc1ccc(-n2nc(C(N)=O)c3c2C(=O)N(c2ccc(N4CCCCC4=O)cc2)CC3)cc1 [Apixaban] | prolongation of clotting time | shortened and normalized clotting time | concentration-dependent clotting-time response | no significance | – | – | – | – | clotting time with addition of exogenous FXI (FXI): prolongation in clotting time
2 | O=C(NC[C@H]1CN(c2ccc(N3CCOCC3=O)cc2)C(=O)O1)c1ccc(Cl)s1 [Rivaroxaban] | – | – | – | no significance | – | – | – | – | clotting times at various agonist concentrations, patient group versus control group (FXa): very different from the control group; clot formation time versus negative control (Factor Xa (FXa); 250 ng/mL Rivaroxaban, FXa agonist down to 375 ng×10^3/mL): significantly longer than the negative control but lower than 500 ng/mL; agonist (FXa) concentration down to which clot formation detected in <[…] (Factor Xa (FXa); 500 ng/ml Rivaroxaban): 750 ng×10^3/mL; clot formation detection time (Factor Xa (FXa); 500 ng/ml Rivaroxaban, FXa agonist down to 750 ng×10^3/mL): < 2.5 min
3 | Dabigatran | prolongation of clotting time | concentration-dependent change in clotting time | relatively small concentration-dependent change in clotting time | – | – | – | – | – | clot formation detection time (FIIa; 250 ng/mL Dabigatran, FIIa agonist down to 710 ng×10^3/mL): < 2.5 min; clot formation detection time (FIIa; 500 ng/ml Dabigatran, FIIa agonist down to 710 ng×10^3/mL): < 2.5 min; clot formation detection time (FIIa; <25 ng/ml Dabigatran, FIIa agonist down to 71 ng×10^3/mL): < 2.5 min
4 | FIX: exogenous coagulation Factor IX, inactive form | – | – | – | – | decreases | prolonged clotting time | prolonged clotting time | slight decrease in clotting time | concentration of added factor needed for normal clotting time (Factor IX; Factor IX-deficient plasma): requires a physiological concentration of replacement factor; concentration of added factor needed to decrease clotting time (Factor IX; plasma containing anti-Factor IX antibodies): requires supra-physiological concentrations of the factor
5 | FXI: exogenous coagulation Factor XI, inactive form | – | – | – | – | prolonged clotting time | prolonged clotting time | decreases | slight decrease in clotting time | –
6 | unfractionated heparin | – | – | – | – | – | – | – | – | clot formation in negative control channel (buffer alone) (Factors IIa and Xa): minimal clot formation; clot formation in FXa-coated channels (Factors IIa and Xa; FXa 7.5, 75, 750 ng×10^3/mL): gradient of clot formation dependent on the concentration of FXa in the channel
